Consider three molecules from ChEMBL document CHEMBL1134152, “Biological activity in human neutrophils of di-tripeptides, analogues of the chemotactic fMLP” (Bioorg Med Chem Lett, 2001).

Assay [1] can be described thus: Chemotactic index (C.I.) which is the ratio: (migration toward test attractant minus migration toward the buffer)/(migration toward the buffer). The class given is functional.
Assay [2] is described as follows: Release of neutrophil granule enzymes was evaluated by determining lysozyme activity modified for microplate-based assays.

As for `COC(=O)[C@H](Cc1ccccc1)NC(=O)[C@H](CC(=O)N[C@@H](CCSC)C(=O)N[C@@H](CC(C)C)C(=O)N[C@@H](Cc1ccccc1)C(=O)O)NC(=O)[C@H](CCSC)NC=O`, the Chemotactic index in assay [1] was found to be 0.5. The molecule further displayed a Lysozyme release in assay [2] of 65%.

Take `COC(=O)[C@H](Cc1ccccc1)NC(=O)[C@H](CCCCNC(=O)N[C@@H](CCSC)C(=O)N[C@@H](CC(C)C)C(=O)N[C@@H](Cc1ccccc1)C(=O)O)NC(=O)[C@H](CCSC)NC=O`: in assay [1], the Chemotactic index stood at 0.7. The same molecule gave a Lysozyme release in assay [2] of 70%.

In the case of `COC(=O)[C@H](Cc1ccccc1)NC(=O)[C@H](CC(C)C)NC(=O)[C@H](CCSC)NC=O`, the Chemotactic index in assay [1] worked out at 1. Moreover, in assay [2], the Lysozyme release came out at 60%.
